Laboratory results reported in patent publication US20240010726A1, “LFA-1 SIGNALLING MEDIATOR FOR USE IN CANCER THERAPY” (Universität Basel, priority 2020, published 2024).

Legend:
[1] = target: T1, LFA-1 (Homo sapiens, UniProt P05107+P20701); experiment: LFA-1 conformations on REP T cells co-incubated with peptide-pulsed T2 target cells; format: cell-based; conditions: T2 cells pulsed with 10^−8 M 9c peptide; E:T 1:1; presence vs absence of extracellular Mg^2+
T1 construct: endogenous in cells; host or cells: primary human T cells from healthy donors: PHA-induced T cell blasts, sorted EM and naive CD8 T cells, and NY-ESO-1 TCR-transduced REP T cells
Protocol: FIG. 3: Magnesium regulates LFA-1 mediated T cell activation and cytotoxicity as well BiTE- and CAR T-cell functionality. (a) Glycolytic switch of murine WT and LFA-1^-/- CTLs upon injection of anti-CD3/28 Ab in medium containing 1.2 mM Mg^2+ and 0 mM Mg^2+, presented as quantification of summarized data with n=4 mice. (b) Calcium flux in WT and LFA-1^-/- Jurkat T cells stimulated with anti-CD3 Ab in 1.2 mM and 0 mM Mg^2+ medium, respectively. Cells were loaded with Fluo4, and signal intensity as recorded by plate reader, was normalized to unstimulated baseline values. […] Quantified results of n=3 mice with 3 technical replicates each. […] The effector to target cell ratio was 3:1. Results are quantified of n=3 mice with 3 technical replicates each. (e) Representative CD11a (LFA-1) surface expression on human naïve and EM CD8 T cells, PHA T cell blasts and REP T cells, assessed by flow cytometry. […] The effector to target cell ratio was 1:1. Data is presented as quantified results of n=5 healthy donors (f, g, h), n=3 healthy donors with 2 technical replicates each or n=1 healthy donor with 4 technical replicates (j). […] The effector to target cell ratio was 1:1. Data is presented as quantified results of n=1 healthy donor with 4 technical replicates. […] (n) Representative histogram of CD11a expression on PHA-blasts, untransduced T cells as well anti-CD19 expressing CAR T cells. […] Pooled results of n=6 from 2 independent experiments are shown. (p) Abundance of IFNγ in cell culture supernatants corresponding to the conditions depicted in (o) at 24 hours was determined by ELISA (n=8, 3 independent experiments). (q) Tumor growth curves of mice placed on either Mg^2+-depleted diet or respective control diet and treated with either anti-PSMA CAR T cells, untransduced T cells or saline solution. Representative of n=2 independent experiments with n=6 mice per group. REP […] target cells in flat bottom 96 well-plate, if not indicated otherwise, at a 1:1 ratio (4-6×10^4 each). Optimal ratio had been titrated for each donor beforehand. […]

[2] = test system: REP T cells; experiment: FAK phosphorylation and CD107a degranulation of REP T cells co-incubated with T2 target cells; format: cell-based, human; conditions: pulsed T2 target cells; presence vs absence of extracellular Mg^2+
Protocol: FIG. 3: Magnesium regulates LFA-1 mediated T cell activation and cytotoxicity as well BiTE- and CAR T-cell functionality. (a) Glycolytic switch of murine WT and LFA-1^−/− CTLs upon injection of anti-CD3/28 Ab in medium containing 1.2 mM Mg^2+ and 0 mM Mg^2+, presented as quantification of summarized data with n=4 mice. (b) Calcium flux in WT and LFA-1^−/− Jurkat T cells stimulated with anti-CD3 Ab in 1.2 mM and 0 mM Mg^2+ medium, respectively. Cells were loaded with Fluo4, and signal intensity as recorded by plate reader, was normalized to unstimulated baseline values. […] Quantified results of n=3 mice with 3 technical replicates each. (d) Caspase-3 activity in EL4 target cells after co-culture with murine WT and LFA-1^−/− CTLs under the conditions as in (c) for 4 hours, in presence of 10 μg/ml PHA. The effector to target cell ratio was 3:1. Results are quantified of n=3 mice with 3 technical replicates each. (e) Representative CD11a (LFA-1) surface expression on human naïve and EM CD8 T cells, PHA T cell blasts and REP T cells, assessed by flow cytometry. Flow cytometry-based assessment of inactivate LFA-1 with bent conformation (f), extended conformation with β2 leg extension (g), LFA-1 with open head-piece (h), phosphorylation of FAK, expression of degranulation marker CD107a (j) on REP T cells after co-incubation with T2 target cells (pulsed with 10^−8 M 9c peptide) in same condition as in (c). The effector to target cell ratio was 1:1. Data is presented as quantified results of n=5 healthy donors (f, g, h), n=3 healthy donors with 2 technical replicates each or n=1 healthy donor with 4 technical replicates (j). […] Data is presented as quantified results of n=1 healthy donor with 4 technical replicates. […] Cytotoxicity is reported as total area under the curve of the fluorescence driven by incorporation of cytotoxic green reagent in dead target cells (green area per μm^2). […] (p) Abundance of IFNγ in cell culture supernatants corresponding to the conditions depicted in (o) at 24 hours was determined by ELISA (n=8, 3 independent experiments). […]

T1 sequence (P20701 26-1170): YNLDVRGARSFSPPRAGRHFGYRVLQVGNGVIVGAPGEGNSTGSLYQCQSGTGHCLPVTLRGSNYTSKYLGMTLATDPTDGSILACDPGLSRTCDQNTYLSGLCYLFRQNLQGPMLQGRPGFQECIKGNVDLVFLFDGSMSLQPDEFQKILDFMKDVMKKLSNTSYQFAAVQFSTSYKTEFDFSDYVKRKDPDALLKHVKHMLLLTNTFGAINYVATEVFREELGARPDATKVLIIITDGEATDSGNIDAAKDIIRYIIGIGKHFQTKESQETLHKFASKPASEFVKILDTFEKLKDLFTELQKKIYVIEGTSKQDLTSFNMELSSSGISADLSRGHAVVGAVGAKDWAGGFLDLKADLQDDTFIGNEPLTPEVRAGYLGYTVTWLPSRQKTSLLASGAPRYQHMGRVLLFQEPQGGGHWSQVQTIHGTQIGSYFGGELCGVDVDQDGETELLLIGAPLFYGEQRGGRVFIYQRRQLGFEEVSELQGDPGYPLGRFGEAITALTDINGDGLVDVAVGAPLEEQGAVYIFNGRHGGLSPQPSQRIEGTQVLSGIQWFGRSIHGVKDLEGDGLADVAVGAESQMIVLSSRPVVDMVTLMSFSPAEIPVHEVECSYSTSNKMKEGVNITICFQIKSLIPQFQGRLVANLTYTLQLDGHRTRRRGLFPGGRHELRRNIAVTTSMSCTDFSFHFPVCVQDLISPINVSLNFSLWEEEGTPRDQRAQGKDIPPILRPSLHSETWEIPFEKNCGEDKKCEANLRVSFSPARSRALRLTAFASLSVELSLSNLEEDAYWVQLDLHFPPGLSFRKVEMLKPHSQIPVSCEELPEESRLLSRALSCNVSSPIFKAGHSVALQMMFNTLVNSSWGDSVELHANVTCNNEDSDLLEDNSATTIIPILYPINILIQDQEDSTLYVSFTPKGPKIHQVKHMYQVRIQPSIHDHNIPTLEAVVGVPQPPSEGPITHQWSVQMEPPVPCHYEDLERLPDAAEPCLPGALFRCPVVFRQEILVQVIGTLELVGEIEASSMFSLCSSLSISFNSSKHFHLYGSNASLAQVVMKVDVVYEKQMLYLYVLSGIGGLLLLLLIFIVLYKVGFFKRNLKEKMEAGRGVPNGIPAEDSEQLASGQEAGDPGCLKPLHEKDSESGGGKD
T1 sequence (P05107 23-769): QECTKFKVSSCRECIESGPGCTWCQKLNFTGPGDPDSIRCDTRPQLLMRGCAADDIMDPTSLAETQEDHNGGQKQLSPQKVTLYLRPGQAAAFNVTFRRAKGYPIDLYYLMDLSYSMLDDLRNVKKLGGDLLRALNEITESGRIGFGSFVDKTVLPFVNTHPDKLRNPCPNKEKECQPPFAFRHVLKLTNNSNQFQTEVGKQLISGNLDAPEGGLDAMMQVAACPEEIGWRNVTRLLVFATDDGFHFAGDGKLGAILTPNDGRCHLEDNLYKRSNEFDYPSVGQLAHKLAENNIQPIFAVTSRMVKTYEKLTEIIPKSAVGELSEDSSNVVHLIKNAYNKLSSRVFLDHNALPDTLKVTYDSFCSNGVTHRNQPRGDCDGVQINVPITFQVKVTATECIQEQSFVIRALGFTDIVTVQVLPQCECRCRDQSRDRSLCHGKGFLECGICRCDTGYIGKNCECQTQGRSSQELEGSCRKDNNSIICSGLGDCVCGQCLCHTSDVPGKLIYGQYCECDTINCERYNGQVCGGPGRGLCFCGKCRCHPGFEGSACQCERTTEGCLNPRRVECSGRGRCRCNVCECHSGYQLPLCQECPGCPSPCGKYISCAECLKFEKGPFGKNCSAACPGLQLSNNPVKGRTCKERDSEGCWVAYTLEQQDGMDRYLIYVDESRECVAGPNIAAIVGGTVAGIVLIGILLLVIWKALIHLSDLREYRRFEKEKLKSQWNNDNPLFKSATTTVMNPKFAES

[Mg+2] [Mg^2+, Magnesium]
Extended LFA-1 conformation on REP T cells [1]: significant increase of extended LFA-1 | Inactive LFA-1 with bent conformation on REP T cells [1]: reduced abundance of inactive, bent conformation | LFA-1 with open head-piece on REP T cells [1]: significant increase | Degranulation (CD107a) of REP T cells [2]: significantly increased | FAK phosphorylation in REP T cells [2]: significantly increased
